Experimental data from patent publication US8247551B2, “Lead sensor and methods of use” (priority 2007, dated 2012).

How the values were obtained:
[1] = Turn-on fluorescence response to Pb2+ (Example 3, FIG. 49); conditions: 5 μM, 2.5% methanol-water; unbound at 465 nm, Pb^2+ complex at 423 nm
From the text: (§1) When the fluorescent binder according to the present embodiments binds with Pb^2+ to form a Pb^2+/binder complex, the complex fluoresces with a high optical brightness. For example, according to the present embodiments, the unbound fluorescent binder represented by Formula V (or Formula IV, in its protected form) may have an excitation band with a absorbance maximum λmax at a wavelength centered around 415 nm, an emission band with a emission maximum λmax centered around 465 and a quantum yield for the fluorescence emission of φ=0.12. When the fluorescent binder is bound to Pb^2+ ions, the resulting Pb^2+/binder complex may have an excitation band with a λmax centered around 389 nm, an emission band with a λmax centered around 423 nm, and a quantum yield of φ=0.63. Quantum yields were calculated with reference to the quantum yield of fluorescein (φ=0.95). […]
In this Example, the “turn on” response of the fluorophore corresponding to Formula V (Formula IV in protected form) was determined. The fluorescence emission spectrum of a 5 μM solution of the fluorophore in 2.5% methanol-water was recorded with a maximum emission intensity observed at λmax=465 nm (expanded spectrum shown in the inset in FIG. 49). […] The fluorescence emission spectrum of the resulting Pb^2+/fluorophore complex was recorded with a maximum fluorescence emission intensity observed at λmax=423 nm as presented in FIG. 49.

[2] = Apparent dissociation constant for Pb2+ from fluorescence of the complex (Hill fit); format: binding; conditions: pH=10; read-out: apparent dissociation coefficient, Kd, for Pb^2+
From the text: [drawing 8] or the corresponding thiolate compound (i.e., where one or both thiols of the ene-dithiol are deprotonated). In the presence of Pb^2+ ions and a hydrolyzing agent, the dithiocarbonate functionality of compound IV may be hydrolyzed and the resulting fluorescent binder compound binds with the Pb^2+ to form a Pb^2+/binder complex. According to specific embodiments, the fluorescent binder of the present disclosure has a high sensitivity for Pb^2+ ions, even in the presence of other metal ions. […] In other embodiments, the Kd may be less than 300 nM, or in certain embodiments less than 250 nM. […] As will be understood by one of ordinary skill in the art, the Kd for binding of Pb^2+ may vary according to the conditions of the experiment, including, but not limited to solvent, temperature, pH, etc. It should be noted that in other embodiments, other compounds represented by Formula I may also serve as selective binders of lead, or other metal ions.
(§2) All spectroscopic measurements were recorded in a solution of 2.5% methanol (for solubility reason) and water. HPLC grade MeOH and distilled water were used for each measurement. Absorption spectra were measured on a Varian Cary 300 spectrometer. Samples for absorption measurement were performed in 1-cm 1-cm quartz cuvettes (3.5 mL volume, Starna). […]

[3] = Fluorescence emission with Pb2+ versus other metal ions (Example 5, FIG. 51); conditions: 5 μM fluorophore, 75 μM Pb^2+, other metal ion 75 μM or 2 millimolar
From the text: According to certain embodiments, the fluorescent binder discussed herein selectively binds to Pb^2+ over other metal ions including other transition metal ions. According to various embodiments, the fluorescence emission intensity of the Pb^2+/binder complex is greater than a fluorescence emission intensity of other metal ion/binder complexes. Other metal ions that may form a metal ion/binder complex that has a lower fluorescence emission intensity than that of the Pb^2+/binder complex include, but are not limited to Li^+, Na^+, K^+, Ca^2+, Mg^2+, Fe^2+, Co^2+, Ni^2+, Cu^2+, Zn^2+, Cd^2+, Mn^2+, Hg^2+, Sn^2+, As^3+, and mixtures thereof. For example, according to one non-limiting embodiment, the Pb^2+/binder complex in the presence of the other metal ions may have a fluorescence emission intensity at least about 10 times greater than the fluorescence emission intensity of another metal ion/binder complex. In other embodiments, the Pb^2+/binder complex in the presence of the other metal may have a fluorescence emission intensity at least about 20 times greater than the fluorescence emission intensity of another metal ion/binder complex. FIG. 51 compares the fluorescence emission intensity of the Pb^2+/binder complex in the presence of the other metal with the fluorescence emission intensity of the other metal ion/binder complexes (i.e., in the absence of Pb^2+). […]

Solubility = format: physicochemical
From the text: (§3) These fluorophores are soluble in common organic solvents, for example, but not limited to, chloroform, methylene chloride, acetonitrile, and methanol and in mixtures of methanol and water. […] There is a shoulder near […] and no transition was observed beyond 430 nm. The molar extinction coefficients of these bands are near 10000 or higher. […] The spectral features remain unchanged in a mixed solvent such as 2.5% methanol 97.5% water. […] Thus, in principle, this compound can be used as a pH sensor. That is, the fluorescence emission intensity may vary according to the pH of the environment or solution that the fluorophore is in.
In addition, the Pb^2+/binder complex fluoresces with greater emission intensity over a wide pH range in aqueous solutions. According to one embodiment the Pb^2+/binder complex fluoresces with a high fluorescence emission intensity, for example with a quantum yield of greater than 0.5 (φ>0.5), at pH values of 10 or less. […] Thus, the term “high fluorescence emission intensity” means a fluorescence emission intensity having a quantum efficiency of greater than 0.5 (φ>0.5 as measured relative to a fluorescein reference). […] With other fluorophores, the fluorescence emission intensity of the fluorophore may decrease at low pH levels. For comparison, as discussed herein, the quantum yield for fluorescence emission of fluorescein decreases at pH levels less than ˜8.

[4] = Fluorescence quantum yield in reference to fluorescein; format: physicochemical
Method: For an acetonitrile solution of fluorophore 7, when excited at […] or 384 nm band, an emission at 411 nm is observed. Similarly when a methanolic solution of fluorophore 7 is excited at 385 nm or 367 nm, an emission at 415 nm is observed. Finally for a solution of fluorophore 7 in the mixed solvent, when excited at 389 nm, an emission is observed at 423 nm (see FIG. 10). A 0.12 value for the quantum yield of fluorophore 7 in methanol was determined in reference to fluorescein in 0.1 M NaOH (φ=0.95) (using the procedure reported by Brannon, et al., J. Phys. Chem. 1978, 82, 705). Fluorophores of the present disclosure are further described in U.S. application Ser. No. 12/020,343, filed Jan. […]
as §1, with “When the fluorescent binder is bound to Pb^2+ ions, the resulting Pb^2+/binder complex may have an excitation band with a λmax centered around 389 nm, an emission band with a λmax centered around 423 nm, and a quantum yield of φ=0.63.” left out

[5] = Stability in acid and base; format: physicochemical
From the text: as §3

[6] = Quantitative Pb2+ detection in NIST SRM 1643e Trace Elements in Water; conditions: 1 μM compound, NEt4OH 2:1, 2.5% MeOH and water
Method: The fluorescence emission intensity of the Pb^2+/complex in a sample may be measured and compared to a standard calibration plot or values to determine the Pb^2+ ion concentration in the sample. For example, To further examine the sensitivity and accuracy of the sensor, a NIST standard of trace elements in water (SRM® 1643e) in the concentration range of 1-50 ppb Pb^2+ was used and probed with 1 μM of a compound having the structure of Formula IV. In this case, accurate fluorescence responses were observed from 50 ppb to as low as 10 ppb. Further, compound IV was also used in quantitating the concentration of Pb^2+ in solutions prepared from a lead standard (NIST SRM® 3128).
as §2, with “Starna). Fluorescence spectra were measured on a Photon Technology International QuantaMaster™4 spectrofluorometer. Fluorescence measurements were performed in 1-cm 1-cm quartz cuvettes (3.5 mL volume, NSG Precision Cells). Fluorescence quantum yields were determined in reference to fluorescein in 0.1 NaOH (φ=0.95).” for “Starna).”

For `CC1(C)Oc2nc3ccccc3nc2C(S)=C1S` [Formula V], which “maximum fluorescence emission intensity” value [1] is on record?
The value was about 6000 counts/second.

What about the Kd [2] of the same compound?
Its Kd is 217 nM.

What about the “fluorescence emission intensity with Pb^2+ plus other metal ion versus other metal ion alone” value [3] of the same compound?
Its value is “significantly greater fluorescence emission intensity”.

And the “solubility in aqueous solution” value (Solubility)?
Its value is “soluble in aqueous solution”.

And the “quantum yield for the fluorescence emission” value ([4]; unbound binder or Pb^2+ complex, reference fluorescein (φ=0.95))?
The value was 0.12.

Which stability in acid ([5]; acid) does the source give for `CC1(C)Oc2nc3ccccc3nc2-c2sc(=O)sc21` [Compound 7, 4,4-dimethyl-4H-5-oxa-1,3-dithia-6,11-diaza-cyclopenta[a]anthracen-2-one] here?
The stability in acid was “stable in acid”.

And the stability in base ([5]; base (pH>7))?
Its stability in base is “transforms into a less fluorescent substance”.

What about the quantum yield ([4]; in methanol, reference fluorescein in 0.1 M NaOH) of the same compound?
The quantum yield was 0.12.

What about the “Pb^2+ range detected quantitatively by increase in fluorescence response” value [6] of the same compound?
Its value is 10-50 ppb.
